Earlier results on one molecule are cited in US9808446B2, “Method for decreasing symptoms of alcohol consumption” (Alcobra Ltd., priority 2007, dated 2017).

Assay in data set [1]: not given
This is another data set of the same source.

The subject of data set [2] is frontoparietal cortex. The note with it: guinea pigs, brain.
The conditions of data set [3]: long term data.

As for `Cc1ncc(CO)c(CO)c1O.O=C1CC[C@@H](C(=O)O)N1` [Metadoxine, pyridoxol L,2-pyrrolidon-5 carboxylate], the “mean half life in human serum” value (Lu Yuan et al.) is listed as “about 0.8 hour”. For the setting “oral”, the bioavailability is given as 60-80% and the oral absorption entry was “fast”. For the same molecule, under “oral and intravenous, without appreciable differences”, the “half life in human serum” value was 40 to 60 min. In data set [1] (animal studies), the “glutathione depletion in hepatic tissues” value is “prevented” and the “oxidative stress in hepatic tissues” value is recorded as “reduced”. In data set [1] (during chronic alcohol intake), the “increased production of fatty acid esters in the liver” value is given as “inhibited”. Also, the “level of GABA and acetylcholine in the frontoparietal cortex” value in data set [2] is given as “increased”. Moreover, the “safety for use by humans” value in data set [3] is “safe”.
